The text below walks through data of ChEMBL document CHEMBL4421722, “Inhibitors of protein prenyltransferases” (2013).

The species named for the assay is Rattus norvegicus. Briefly: Inhibition of rat recombinant geranylgeranyltransferase type I expressed in Escherichia coli assessed as residual enzyme activity for geranylgeranylation of K-Ras4B at 50 uM incubated for 30 mins in presence of [3H]GGPP by scintillation counting assay relative to control.

On to `CCCCCCS[C@@H]1C[C@@H](c2cccc(Cl)c2)N(S(=O)(=O)c2ccc(C)cc2)C[C@H]1C(=O)O`, for which the Activity was 77.3%.
Under `Cc1ccc(S(=O)(=O)N2[C@@H](c3cccc(C)c3)C(C(=O)O)=CC[C@H]2c2ccc(C#N)cc2)cc1` stands 66.7%.
To `Cc1ccc(S[C@@H]2C[C@@H](c3ccc(C)cc3)N(S(=O)(=O)c3ccccc3C)C[C@H]2C(=O)O)cc1` belongs 92.4%; to `Cc1ccc([C@@H]2C[C@@H](Sc3ccc(Cl)cc3)[C@H](C(=O)O)CN2S(C)(=O)=O)cc1`, 105%; to `CCCCCS[C@@H]1C[C@@H](c2ccc(OC)cc2)N(S(=O)(=O)c2ccc(C)cc2)C[C@H]1C(=O)O`, 86.7%.
To `COc1ccc([C@@H]2CC=C(C(=O)O)[C@H](c3ccc(C)cc3)N2S(=O)(=O)c2ccc(C)cc2)cc1` belongs 73.8%; to `CC(=O)C1=CC[C@@H](c2ccc(Cl)cc2)N(S(=O)(=O)c2ccccc2C)C1`, 91.9%; to `Cc1ccc(S(=O)(=O)N2[C@@H](c3ccc(Br)cc3)C(C(=O)O)=CC[C@H]2c2ccc(F)cc2)cc1`, 62.6%.
`Cc1ccc(S[C@@H]2C[C@@H](c3ccc4c(c3)OCO4)N(S(=O)(=O)c3ccc(C)cc3)C[C@H]2C(=O)O)cc1`: the Activity came to 77.8%.
To `CCCCS[C@@H]1C[C@@H](c2ccc(CC)cc2)N(S(=O)(=O)c2ccc(C)cc2)C[C@H]1C(=O)O` belongs 58.3%; to `CC(=O)C1=CC[C@@H](c2cccc(Br)c2)N(S(=O)(=O)c2ccc(C)cc2)C1`, 105%; to `Cc1ccc(S(=O)(=O)N2[C@@H](c3ccc(C(C)(C)C)cc3)C(C(=O)O)=CC[C@H]2c2ccc(C(C)C)cc2)cc1`, 88.3%.
To `Cc1ccc([C@@H]2CC=C(C(=O)O)[C@H](c3cccc(C)c3)N2S(=O)(=O)c2ccccc2C)cc1` belongs 53.4%.
Under `Cc1ccc([C@@H]2CC=C(C(=O)O)[C@H](c3ccc(F)cc3)N2S(C)(=O)=O)cc1` stands 84.4%; under `COc1ccc([C@@H]2C[C@@H](SCc3ccc(C(C)(C)C)cc3)[C@H](C(=O)O)CN2S(=O)(=O)c2ccc(Cl)cc2)cc1`, 66%; under `Cc1ccc([C@@H]2CC=C(C(=O)O)[C@H](c3cccc(Cl)c3)N2S(=O)(=O)c2ccccc2C)cc1`, 62.3%.
Turning to `CC(=O)C1=CC[C@@H](c2ccc(C)cc2)N(S(=O)(=O)c2ccc(C)cc2)C1`, the Activity came out at 90.6%.
For `COc1ccc([C@@H]2CC=C(C(=O)O)[C@H](c3cccc(C)c3)N2S(=O)(=O)c2ccccc2)cc1`, the Activity came to 72.6%.
Under `Cc1ccccc1S(=O)(=O)N1C[C@@H](C(=O)O)[C@H](SCc2ccc(C(C)(C)C)cc2)C[C@H]1c1ccc(Cl)cc1` stands 43.1%; under `Cc1ccc(S(=O)(=O)N2[C@@H](c3cccc(Cl)c3)C(C(=O)O)=CC[C@H]2c2ccccc2F)cc1`, 70.1%.
Take `Cc1ccc(S(=O)(=O)N2C[C@@H](C(=O)O)[C@H](SC3CCCC3)C[C@H]2c2ccccc2)cc1`: the Activity is 93.6%.
To `Cc1ccc(S(=O)(=O)N2[C@@H](c3ccc(C(C)(C)C)cc3)C(C(=O)O)=CC[C@H]2c2ccccc2F)cc1` belongs 84.2%; to `CCCCS[C@@H]1C[C@@H](c2ccc3c(c2)OCO3)N(S(=O)(=O)c2ccc(C)cc2)C[C@H]1C(=O)O`, 80.4%.
Take `Cc1ccc([C@@H]2CC=C(C(=O)O)[C@H](c3ccc(F)cc3)N2S(=O)(=O)c2ccccc2C)cc1`: the Activity turned out to be 50.9%.
To `Cc1ccc([C@@H]2CC=C(C(=O)O)[C@H](c3ccc(C(C)(C)C)cc3)N2S(=O)(=O)c2ccccc2)cc1` belongs 81.6%; to `CCS[C@@H]1C[C@@H](c2cc(OC)c(OC)c(OC)c2)N(S(=O)(=O)c2ccc(C)cc2)C[C@H]1C(=O)O`, 90.4%; to `COc1ccc([C@@H]2CC=C(C(=O)O)[C@H](c3ccc(F)cc3)N2S(=O)(=O)c2ccccc2C)cc1`, 66.1%.
To `CCCCCS[C@@H]1C[C@@H](c2ccc(C)cc2)N(S(=O)(=O)c2ccccc2)C[C@H]1C(=O)O` belongs 81%; to `CCCS[C@@H]1C[C@@H](c2cc(OC)c(OC)c(OC)c2)N(S(=O)(=O)c2ccc(C)cc2)C[C@H]1C(=O)O`, 75%; to `CCc1ccc([C@@H]2C[C@@H](SCCC(C)C)[C@H](C(=O)O)CN2S(=O)(=O)c2ccc(C)cc2)cc1`, 71.9%.
For the compound `C=CCS[C@@H]1C[C@@H](c2ccc(OCC)cc2)N(S(=O)(=O)c2ccc(C)cc2)C[C@H]1C(=O)O`, the Activity amounted to 96.7%.
To `Cc1ccc(S(=O)(=O)N2[C@@H](c3ccc(Br)cc3)C(C(=O)O)=CC[C@H]2c2ccc(C(C)C)cc2)cc1` belongs 83.7%.
`Cc1ccc(S(=O)(=O)N2[C@@H](c3ccc(Cl)cc3)C(C(=O)O)=CC[C@H]2c2cccs2)cc1`: the Activity worked out at 75.6%.
Under `Cc1ccc([C@H]2C(C(=O)O)=CC[C@@H](c3ccc(Cl)cc3)N2S(C)(=O)=O)cc1` stands 90.6%; under `Cc1ccc(S(=O)(=O)N2[C@@H](c3cccc(C)c3)C(C(=O)O)=CC[C@H]2c2cccc(F)c2)cc1`, 60.5%.
Under `Cc1cccc([C@H]2C(C(=O)O)=CC[C@@H](c3ccccc3)N2S(C)(=O)=O)c1` stands 68.1%.
To `Cc1ccc(S[C@@H]2C[C@@H](c3ccccc3F)N(S(=O)(=O)c3ccc(C)cc3)C[C@H]2C(=O)O)cc1` belongs 80.4%; to `COc1cc([C@@H]2C[C@@H](SCc3ccc(Cl)cc3)[C@H](C(=O)O)CN2S(=O)(=O)c2ccc(C)cc2)cc(OC)c1OC`, 44.9%; to `Cc1ccc([C@@H]2CC=C(C(=O)O)[C@H](c3ccc(Br)cc3)N2S(=O)(=O)c2ccc(C)cc2)cc1`, 68.1%.
Regarding `CCc1ccc([C@@H]2CC=C(C(=O)O)[C@H](c3cccc(F)c3)N2S(=O)(=O)c2ccc(C)cc2)cc1`, the Activity was 55%.
Under `Cc1ccc(S(=O)(=O)N2C[C@@H](C(=O)O)[C@H](SC3CCCC3)C[C@H]2c2ccc(Cl)cc2)cc1` stands 94.7%.
To `CCCCCS[C@@H]1C[C@@H](c2ccccc2)N(S(=O)(=O)c2ccc(C)cc2)C[C@H]1C(=O)O` belongs 77.2%; to `COc1ccc([C@@H]2CC=C(C(=O)O)[C@H](c3cccc(F)c3)N2S(=O)(=O)c2ccc(C)cc2)cc1`, 87.5%.
To `COc1ccc([C@@H]2CC=C(C(=O)O)[C@H](c3ccc(C)cc3)N2S(=O)(=O)c2ccc(C)cc2)cc1OC` belongs 89.3%; to `Cc1ccc([C@@H]2CC=C(C(=O)O)[C@H](c3cccc(C)c3)N2S(C)(=O)=O)cc1`, 56%.
Regarding `Cc1ccc([C@@H]2C[C@@H](SC3CCCC3)[C@H](C(=O)O)CN2S(C)(=O)=O)cc1`, the Activity stood at 110%.
Consider `COc1ccc([C@@H]2C[C@@H](SCc3ccc(Cl)cc3)[C@H](C(=O)O)CN2S(=O)(=O)c2ccc(C)cc2)cc1OC`, for which the Activity is 69.1%.
To `CCCCCS[C@@H]1C[C@@H](c2cccc(OC)c2)N(S(=O)(=O)c2ccc(C)cc2)C[C@H]1C(=O)O` belongs 105%; to `Cc1ccc([C@@H]2C[C@@H](SCCc3ccccc3)[C@H](C(=O)O)CN2S(=O)(=O)c2ccccc2)cc1`, 55.5%; to `Cc1ccc([C@@H]2CC=C(C(=O)O)[C@H](c3ccc(F)cc3)N2S(=O)(=O)c2ccc(Cl)cc2)cc1`, 60%.
To `Cc1ccc(S(=O)(=O)N2[C@@H](c3ccc(Br)cc3)C(C(=O)O)=CC[C@H]2c2ccccc2)cc1` belongs 74.6%.
Under `CCCCS[C@@H]1C[C@@H](c2ccc(C)cc2)N(S(=O)(=O)c2ccc(Cl)cc2)C[C@H]1C(=O)O` stands 49.2%.
For `COc1ccc([C@@H]2CC=C(C(=O)O)[C@H](c3ccc(Br)cc3)N2S(=O)(=O)c2ccccc2)cc1`, the Activity came to 82.3%.
For the compound `CCCS[C@@H]1C[C@@H](c2cccc(Cl)c2)N(S(=O)(=O)c2ccc(C)cc2)C[C@H]1C(=O)O`, the Activity came out at 78.8%.
As to `COC(=O)c1ccccc1S(=O)(=O)N1[C@@H](c2cccc(Br)c2)C(C(=O)O)=CC[C@H]1c1ccc(C)cc1`, the Activity turned out to be 64.9%.
Under `CCCCCS[C@@H]1C[C@@H](c2ccccc2F)N(S(=O)(=O)c2ccc(C)cc2)C[C@H]1C(=O)O` stands 61.4%.
To `Cc1ccc(S(=O)(=O)N2[C@@H](c3cccc(Br)c3)C(C(=O)O)=CC[C@H]2c2ccc(C(C)C)cc2)cc1` belongs 41.1%; to `COc1ccc([C@@H]2CC=C(C(=O)O)[C@H](c3ccc(C)cc3)N2S(=O)(=O)c2ccc(Cl)cc2)cc1`, 72.5%.
Under `CCCCCS[C@@H]1C[C@@H](c2ccc(Cl)cc2)N(S(=O)(=O)c2ccccc2C)C[C@H]1C(=O)O` stands 57.9%; under `Cc1ccc(S(=O)(=O)N2[C@@H](c3cccc(C)c3)C(C(=O)O)=CC[C@H]2c2cccc(C)c2)cc1`, 58%.
In the case of `CCCS[C@@H]1C[C@@H](c2ccccc2F)N(S(=O)(=O)c2ccc(C)cc2)C[C@H]1C(=O)O`, the Activity came out at 91.1%.
Under `CCCCCCS[C@@H]1C[C@@H](c2ccc(OCC)cc2)N(S(=O)(=O)c2ccc(C)cc2)C[C@H]1C(=O)O` stands 67.6%.
Under `CCCCS[C@@H]1C[C@@H](c2cc(OC)c(OC)c(OC)c2)N(S(=O)(=O)c2ccc(C)cc2)C[C@H]1C(=O)O` stands 73.5%; under `Cc1ccc(S(=O)(=O)N2[C@@H](c3ccc(Cl)cc3)C(C(=O)O)=CC[C@H]2c2cccc(Br)c2)cc1`, 68.1%.
To `CCCCCS[C@@H]1C[C@@H](c2cc(OC)c(OC)c(OC)c2)N(S(=O)(=O)c2ccc(C)cc2)C[C@H]1C(=O)O` belongs 81.8%; to `Cc1ccc(S(=O)(=O)N2[C@@H](c3ccc(Cl)cc3)C(C(=O)O)=CC[C@H]2c2ccc(C#N)cc2)cc1`, 73.1%.
Regarding `COc1ccc([C@@H]2C[C@@H](SCC(C)C)[C@H](C(=O)O)CN2S(=O)(=O)c2ccccc2)cc1`, the Activity stood at 70.2%.
As to `Cc1ccc(S(=O)(=O)N2C[C@@H](C(=O)O)[C@H](SCCC(C)C)C[C@H]2c2ccc3c(c2)OCO3)cc1`, the Activity worked out at 77.4%.
Under `CCS[C@@H]1C[C@@H](c2ccc(Cl)cc2)N(S(=O)(=O)c2ccc(C)cc2)C[C@H]1C(=O)O` stands 87.8%; under `O=C(O)C1=CC[C@@H](c2ccc(Cl)cc2)N(S(=O)(=O)c2ccc(Cl)cc2)[C@H]1c1cccc(F)c1`, 44.8%.
